Test results reported in patent US11352322B2, “Cyclopropyl-amide compounds as dual LSD1/HDAC inhibitors” (Jubilant Epicore LLC, priority 2016, dated 2022).
Structures can show the parent of a compound that is named as a salt. Where two headings read alike, the source gives them in different places.

Key:
[1] = Metabolic stability in liver microsomes, MLM; settings: 1 μM, NADPH
Description: (§1) The microsomal suspension was prepared by adding liver microsomes to 100 mM potassium phosphate buffer (pH7.4) to give a final protein concentration of 0.5 mg/mL. The stock solution of NCE (10 mM in DMSO) was added to the microsomes to provide a final concentration of 1 μM. […] Samples were vortexed and centrifuged at 5,000 rpm for 10 min to remove proteins. Supernatant were analyzed on LC-MS/MS.

[2] = Metabolic stability in liver microsomes, HLM; settings: 1 μM, NADPH
Description: as §1

[3] = molecular target: LSD1 (Homo sapiens (Human), UniProt O60341); test: TR-FRET Assay for LSD1; settings: read-out: LSD1 IC50
Description: TR-FRET Assay for LSD1 (Perkin Elmer)
Tranylcypromine (TCP), LSD1 inhibitor was procured from Selleckchem. […] Stop Solution containing 300 μM tranylcypromine in 1× LANCE Detection Buffer was added to the wells and incubated for 5 min at RT. Then, Detection mix containing 2 nM Eu-Ab and 50 nM ULight-Streptavidin in 1× LANCE Detection Buffer was prepared and added to the reaction mix. This mixture was incubated for 1 hour at room temperature.

[4] = molecular target: HDAC6 human recombinant enzyme (Homo sapiens (Human), UniProt Q9UBN7); test: Histone Deacetylase Assay (BPS Biosciences), HDAC6; assay type: biochemical
From the text: Histone Deacetylase Assay (BPS Biosciences)
Histone deacetylase assay was done as per manufacturer's instructions.

[5] = tested on: MM1S; test: Anticancer activity: Alamar Blue assay, MM1S; assay type: cell-based; settings: Homo sapiens, MM1.S, read-out: MM1S EC50

Sequence of HDAC6 human recombinant enzyme (Q9UBN7 whole entry): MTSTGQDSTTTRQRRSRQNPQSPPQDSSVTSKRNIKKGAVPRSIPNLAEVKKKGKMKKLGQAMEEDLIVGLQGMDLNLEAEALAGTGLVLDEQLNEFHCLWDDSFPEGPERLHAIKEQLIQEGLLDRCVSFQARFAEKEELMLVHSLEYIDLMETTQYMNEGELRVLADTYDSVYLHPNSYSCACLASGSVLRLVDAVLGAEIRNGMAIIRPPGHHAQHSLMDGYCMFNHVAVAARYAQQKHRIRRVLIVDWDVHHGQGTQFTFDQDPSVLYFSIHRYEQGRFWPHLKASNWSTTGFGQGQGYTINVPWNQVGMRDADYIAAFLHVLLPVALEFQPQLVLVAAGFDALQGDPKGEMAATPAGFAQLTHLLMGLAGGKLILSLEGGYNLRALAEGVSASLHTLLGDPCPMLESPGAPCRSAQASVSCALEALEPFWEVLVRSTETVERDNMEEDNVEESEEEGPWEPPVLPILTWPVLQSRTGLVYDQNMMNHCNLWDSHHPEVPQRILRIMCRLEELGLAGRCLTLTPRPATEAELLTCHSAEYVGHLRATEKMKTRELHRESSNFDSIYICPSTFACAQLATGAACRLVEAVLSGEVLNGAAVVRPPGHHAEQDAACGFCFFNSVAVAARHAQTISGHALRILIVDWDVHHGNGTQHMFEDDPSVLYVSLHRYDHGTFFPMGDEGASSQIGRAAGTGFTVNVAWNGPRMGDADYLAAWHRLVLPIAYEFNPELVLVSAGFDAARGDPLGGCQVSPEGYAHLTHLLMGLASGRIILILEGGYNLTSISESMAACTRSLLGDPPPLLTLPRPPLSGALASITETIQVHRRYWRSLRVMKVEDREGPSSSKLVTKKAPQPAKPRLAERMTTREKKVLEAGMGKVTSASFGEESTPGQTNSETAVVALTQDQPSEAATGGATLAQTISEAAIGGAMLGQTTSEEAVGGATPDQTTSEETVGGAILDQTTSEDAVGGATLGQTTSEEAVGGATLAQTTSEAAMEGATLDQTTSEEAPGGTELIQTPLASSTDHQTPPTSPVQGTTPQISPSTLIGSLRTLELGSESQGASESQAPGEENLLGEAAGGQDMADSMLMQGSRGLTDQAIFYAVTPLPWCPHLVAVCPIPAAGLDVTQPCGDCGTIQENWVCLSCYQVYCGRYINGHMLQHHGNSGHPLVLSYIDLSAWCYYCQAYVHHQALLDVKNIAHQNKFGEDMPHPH

Question: What does the source list for O=C(NO)c1cccc(CNC2CC2c2ccccc2)c1 (stereo not shown) [Example 27, N-hydroxy-3-(((2-phenylcyclopropyl)amino)methyl)benzamide TFA]?
Answer: Metabolic stability MLM % remaining in 30 min [1]: 51%; Metabolic stability HLM % remaining in 30 min [2]: 75%; IC50 [3]: 0.016 µM; IC50 [4]: > 1 µM

Question: For CC(NC1CC1c1ccccc1)[C@H]1CC[C@H](C(=O)NO)CC1 (stereo partly drawn) [Example 34, (1S,4R)—N-hydroxy-4-((1S)-1-((2-phenylcyclopropyl)amino)ethyl)cyclohexanecarboxamide TFA Salt], which “Metabolic stability MLM % remaining in 30 min” value [1] is on record?
Answer: 79%

Question: What about the “Metabolic stability HLM % remaining in 30 min” value [2] of the same compound?
Answer: 90%

Question: What about the EC50 ([5]; MM1S cells) of the same compound?
Answer: 0.094 µM

Question: And the IC50 [3]?
Answer: 0.031 µM

Question: What about the IC50 [4] of the same compound?
Answer: > 1 µM

Question: With O=C(NO)c1ccc(CCCN2CCC(NC3CC3c3ccccc3)CC2)cc1 (stereo not shown) [Example 44, N-hydroxy-4-(3-(4-((2-phenylcyclopropyl)amino)piperidin-1-yl)propyl)benzamide TFA Salt] as the compound, how does the “Metabolic stability MLM % remaining in 30 min” value [1] read?
Answer: 55%

Question: And the “Metabolic stability HLM % remaining in 30 min” value [2]?
Answer: 71%

Question: And the EC50 [5]?
Answer: 0.045 µM

Question: And the IC50 [3]?
Answer: 0.013 µM

Question: What about the IC50 [4] of the same compound?
Answer: 0.065 µM

Question: Which “Metabolic stability MLM % remaining in 30 min” value [1] does the source give for O=C(NO)c1ccc(CCCN2CC(CNC3CC3c3ccc(F)cc3)C2)cc1 (stereo not shown) [Example 48, 4-(3-(3-(((2-(4-fluorophenyl)cyclopropyl)amino)methyl)azetidin-1-yl)propyl)-N-hydroxy benzamide TFA Salt] here?
Answer: < 5%

Question: What about the “Metabolic stability HLM % remaining in 30 min” value [2] of the same compound?
Answer: 85%

Question: What about the EC50 ([5]; MM1S cells) of the same compound?
Answer: 0.025 µM

Question: And the IC50 [3]?
Answer: 0.029 µM

Question: What about the IC50 [4] of the same compound?
Answer: 0.184 µM

Question: For CN(C)CCNC(=O)c1ccc(C2CC2NCC2CCN(CCCc3ccc(C(=O)NO)cc3)CC2)cc1 (stereo not shown) [Example 55, N-(2-(dimethylamino)ethyl)-4-(2-(((1-(3-(4-(hydroxycarbamoyl)phenyl)propyl)piperidin-4-yl)methyl)amino)cyclopropyl)benzamide TFA Salt], which “Metabolic stability MLM % remaining in 30 min” value [1] is on record?
Answer: 36%

Question: And the “Metabolic stability HLM % remaining in 30 min” value [2]?
Answer: 40%

Question: What about the IC50 [3] of the same compound?
Answer: 0.022 µM

Question: What about the IC50 [4] of the same compound?
Answer: 0.13 µM

Question: Which results are given for O=C(NO)c1ccc(CCCN2CC(CNC3CC3c3ccc(-c4ccc(F)cc4)cc3)C2)cc1 (stereo not shown) [Example 58, 4-(3-(3-(((2-(4′-fluoro-[1,1′-biphenyl]-4-yl)cyclopropyl)amino)methyl)azetidin-1-yl)propyl)-N-hydroxybenzamide TFA Salt]?
Answer: Metabolic stability MLM % remaining in 30 min [1]: 91%; Metabolic stability HLM % remaining in 30 min [2]: 85%; EC50 [5]: 0.015 µM; IC50 [3]: 0.025 µM; IC50 [4]: 0.043 µM

Question: Which results are given for Cn1ccc(-c2ccc(C3CC3NCC3CCN(CCCc4ccc(C(=O)NO)cc4)CC3)cc2)cc1=O (stereo not shown) [Example 60, N-hydroxy-4-(3-(4-(((2-(4-(1-methyl-2-oxo-1,2-dihydropyridin-4-yl)phenyl)cyclopropyl)amino)methyl)piperidin-1-yl)propyl)benzamide TFA Salt]?
Answer: Metabolic stability MLM % remaining in 30 min [1]: 72%; Metabolic stability HLM % remaining in 30 min [2]: 73%; IC50 [3]: 0.021 µM; IC50 [4]: 0.046 µM

Question: For O=C(NO)c1ccc(CCCN2CCC(CNC3CC3c3ccc(-c4ccc(C(F)(F)F)nc4)cc3)CC2)cc1 (stereo not shown) [Example 66, N-hydroxy-4-(3-(4-(((2-(4-(6-(trifluoromethyl)pyridin-3-yl)phenyl)cyclopropyl)amino)methyl)piperidin-1-yl)propyl)benzamide TFA Salt], which “Metabolic stability MLM % remaining in 30 min” value [1] is on record?
Answer: 85%

Question: What about the “Metabolic stability HLM % remaining in 30 min” value [2] of the same compound?
Answer: 79%

Question: What about the IC50 [3] of the same compound?
Answer: 0.019 µM

Question: What about the IC50 [4] of the same compound?
Answer: 0.1 µM

Question: Which EC50 ([5]; MM1S cells) does the source give for O=C(NO)c1ccc(CCCn2cc(CNC3CC3c3ccccc3)nn2)cc1 (stereo not shown) [Example 77, N-hydroxy-4-(3-(4-(((2-phenylcyclopropyl)amino)methyl)-1H-1,2,3-triazol-1-yl)propyl)benzamide TFA Salt] here?
Answer: 0.07 µM

Question: And the IC50 [3]?
Answer: 0.065 µM

Question: And the IC50 [4]?
Answer: 0.071 µM

Question: What does the source list for O=C(NO)c1ccc(S(=O)(=O)N2CCC(CNC3CC3c3ccccc3)CC2)cc1 (stereo not shown) [Example 85, N-hydroxy-4-((4-(((2-phenylcyclopropyl)amino)methyl)piperidin-1-yl)sulfonyl)benzamide TFA Salt]?
Answer: EC50 ([5]; MM1S cells): > 10 µM; IC50 [3]: 0.062 µM; IC50 [4]: 0.575 µM

Question: For O=C(NO)c1ccc(S(=O)(=O)NCCN2CCC(CNC3CC3c3ccc(F)cc3)CC2)cc1 (stereo not shown) [Example 87, 4-(N-(2-(4-(((2-(4-fluorophenyl)cyclopropyl)amino)methyl)piperidin-1-yl)ethyl)sulfamoyl)-N-hydroxybenzamide TFA Salt], which EC50 ([5]; MM1S cells) is on record?
Answer: 9.11 µM

Question: And the IC50 [3]?
Answer: 0.025 µM

Question: And the IC50 [4]?
Answer: 1.06 µM

Question: With O=C(NO)c1ccc(C(=O)NCCN2CCC(CNC3CC3c3ccccc3)CC2)cc1 (stereo not shown) [Example 89, N-hydroxy-N4-(2-(4-(((2-phenylcyclopropyl)amino)methyl)piperidin-1-yl)ethyl)terephthalamide TFA Salt] as the compound, how does the EC50 ([5]; MM1S cells) read?
Answer: 0.311 µM

Question: And the IC50 [3]?
Answer: 0.02 µM

Question: And the IC50 [4]?
Answer: 0.72 µM

Question: For O=C(NO)c1ccc(CCCC2CCN(C(=O)CNC3CC3c3ccccc3)CC2)cc1 (stereo not shown) [Example 93, N-hydroxy-4-(3-(1-(2-((2-phenylcyclopropyl)amino)acetyl)piperidin-4-yl)propyl)benzamide TFA Salt], which EC50 ([5]; MM1S cells) is on record?
Answer: 1.04 µM

Question: What about the IC50 [3] of the same compound?
Answer: 0.072 µM

Question: What about the IC50 [4] of the same compound?
Answer: 0.187 µM

Question: Which EC50 ([5]; MM1S cells) does the source give for O=C(NO)c1ccc(OCCN2CCC(CNC3CC3c3ccccc3)CC2)nc1 (stereo not shown) [Example 97, N-hydroxy-6-(2-(4-(((2-phenylcyclopropyl)amino)methyl)piperidin-1-yl)ethoxy)nicotinamide TFA Salt] here?
Answer: > 10 µM

Question: And the IC50 [3]?
Answer: 0.033 µM

Question: And the IC50 [4]?
Answer: > 10 µM

Question: With O=C(NO)c1ccc(OCCN2CCC(CNC3CC3c3ccc(-c4ccc(F)cc4)cc3)CC2)nc1 (stereo not shown) [Example 98, 6-(2-(4-(((2-(4′-fluoro-[1,1′-biphenyl]-4-yl)cyclopropyl)amino)methyl)piperidin-1-yl)ethoxy)-N-hydroxynicotinamide TFA Salt] as the compound, how does the EC50 ([5]; MM1S cells) read?
Answer: > 10 µM

Question: And the IC50 [3]?
Answer: 0.037 µM

Question: And the IC50 [4]?
Answer: 5.96 µM

Question: Which results are given for O=C(NO)c1ccc2c(c1)CN(C(=O)CCCN1CCC(CNC3CC3c3ccccc3)CC1)C2 (stereo not shown) [Example 109, N-hydroxy-2-(4-(4-(((2-phenylcyclopropyl)amino)methyl)piperidin-1-yl)butanoyl)isoindoline-5-carboxamide TFA Salt]?
Answer: EC50 ([5]; MM1S cells): 1.1 µM; IC50 [3]: 0.024 µM; IC50 [4]: 0.107 µM

Question: What does the source list for O=C(NO)c1cnc(CCCN2CCC(CNC3CC3c3ccccc3)CC2)s1 (stereo not shown) [Example 112, N-hydroxy-2-(3-(4-(((2-phenylcyclopropyl)amino)methyl)piperidin-1-yl)propyl)thiazole-5-carboxamide TFA Salt]?
Answer: EC50 ([5]; MM1S cells): 0.063 µM; IC50 [3]: 0.022 µM; IC50 [4]: 0.517 µM

Question: With CC(C)n1cc(C2CC2NCC2CCN(CCCc3ccc(C(=O)Nc4ccccc4N)cc3)CC2)cn1 (stereo not shown) [Example 128, N-(2-aminophenyl)-4-(3-(4-(((2-(1-isopropyl-1H-pyrazol-4-yl)cyclopropyl)amino)methyl)piperidin-1-yl)propyl)benzamide TFA Salt] as the compound, how does the EC50 ([5]; MM1S cells) read?
Answer: 0.07 µM

Question: What about the IC50 [3] of the same compound?
Answer: 0.128 µM

Question: And the IC50 [4]?
Answer: > 10 µM

Question: Which results are given for Nc1ccccc1NC(=O)c1ccc(CCC(=O)N2CCC(NC3CC3c3ccccc3)CC2)cc1 (stereo not shown) [Example 133, N-(2-aminophenyl)-4-(3-oxo-3-(4-((2-phenylcyclopropyl)amino)piperidin-1-yl)propyl)benzamide TFA Salt]?
Answer: Metabolic stability MLM % remaining in 30 min [1]: 9%; Metabolic stability HLM % remaining in 30 min [2]: 19%; IC50 [3]: 0.04 µM; IC50 [4]: > 10 µM

Question: Which results are given for Nc1ccccc1NC(=O)c1ccc(CCCn2cc(CNC3CC3c3ccccc3)nn2)cc1 (stereo not shown) [Example 137, N-(2-aminophenyl)-4-(3-(4-(((2-phenylcyclopropyl)amino)methyl)-1H-1,2,3-triazol-1-yl)propyl)benzamide TFA Salt]?
Answer: EC50 ([5]; MM1S cells): 0.126 µM; IC50 [3]: 0.139 µM; IC50 [4]: > 10 µM

Question: For Nc1ccccc1NC(=O)c1ccc(CCCn2cc(CNC3CC3c3ccccc3)cn2)cc1 (stereo not shown) [Example 138, N-(2-aminophenyl)-4-(3-(4-(((2-phenylcyclopropyl)amino)methyl)-1H-pyrazol-1-yl)propyl)benzamide TFA Salt], which EC50 ([5]; MM1S cells) is on record?
Answer: 0.065 µM

Question: And the IC50 [3]?
Answer: 0.099 µM

Question: And the IC50 [4]?
Answer: > 10 µM

Question: What does the source list for Nc1ccccc1NC(=O)c1ccc(Cn2cc(CNC3CC3c3ccccc3)cn2)cc1 (stereo not shown) [Example 145, N-(2-aminophenyl)-4-((4-(((2-phenylcyclopropyl)amino)methyl)-1H-pyrazol-1-yl)methyl)benzamide TFA Salt]?
Answer: EC50 ([5]; MM1S cells): 0.123 µM; IC50 [3]: 0.061 µM; IC50 [4]: > 10 µM

Question: For Nc1ccccc1NC(=O)c1ccc(Cn2cc(CNC3CC3c3ccccc3)nn2)cc1 (stereo not shown) [Example 146, N-(2-aminophenyl)-4-((4-(((2-phenylcyclopropyl)amino)methyl)-1H-1,2,3-triazol-1-yl)methyl)benzamide TFA Salt], which EC50 ([5]; MM1S cells) is on record?
Answer: 0.106 µM

Question: What about the IC50 [3] of the same compound?
Answer: 0.069 µM

Question: And the IC50 [4]?
Answer: > 10 µM

Question: With Nc1ccccc1NC(=O)c1ccc(OCCN2CCC(CNC3CC3c3ccc(F)cc3)CC2)nc1 (stereo not shown) [Example 149, N-(2-aminophenyl)-6-(2-(4-(((2-(4-fluorophenyl)cyclopropyl)amino)methyl)piperidin-1-yl)ethoxy)nicotinamide TFA Salt] as the compound, how does the EC50 ([5]; MM1S cells) read?
Answer: > 10 µM

Question: And the IC50 [3]?
Answer: 0.021 µM

Question: And the IC50 [4]?
Answer: > 10 µM

Question: With Nc1ccccc1NC(=O)c1coc(CCCN2CCC(CNC3CC3c3ccccc3)CC2)n1 (stereo not shown) [Example 153, N-(2-aminophenyl)-2-(3-(4-(((2-phenylcyclopropyl)amino)methyl)piperidin-1-yl)propyl)oxazole-4-carboxamide TFA Salt] as the compound, how does the EC50 ([5]; MM1S cells) read?
Answer: 0.571 µM

Question: And the IC50 [3]?
Answer: 0.024 µM

Question: What about the IC50 [4] of the same compound?
Answer: > 10 µM

Question: With Nc1ccccc1NC(=O)c1ccc(S(=O)(=O)N2CCC(CNC3CC3c3ccccc3)CC2)cc1 (stereo not shown) [Example 160, N-(2-aminophenyl)-4-((4-(((2-phenylcyclopropyl)amino)methyl)piperidin-1-yl)sulfonyl)benzamide TFA Salt] as the compound, how does the EC50 ([5]; MM1S cells) read?
Answer: 0.178 µM

Question: What about the IC50 [3] of the same compound?
Answer: 0.043 µM

Question: What about the IC50 [4] of the same compound?
Answer: > 10 µM
